Entries after “also recorded” stand apart in the source; their conditions may differ.
Test system: patched (ptc-lacZ β-galactosidase reporter)
Experiment: Ptc-lacZ reporter mice assay (X-gal staining of tissues)
Format: in vivo
Method: Mice with a β-galactosidase transgene (ptc-lacZ mice) under the regulatory control of the patched locus express the β-galactosidase protein in the same cells where the endogenous mouse patched gene is expressed. The β-galactosidase protein can thus be used as a faithful reporter of the expression of the endogenous patched gene.
Ptc-lacZ mice were divided into four treatment groups and were treated with the following compounds or combinations of compounds for four days, beginning on the first day after birth (dipal-Shh=dipalmitoylated Sonic hedgehog):
The vehicle for the agonist was 10% DMSO in PBS (pH 7.2). The agonist was injected from a 4.67 mM stock dissolved in the vehicle solution.
18 hours following the last injections, the mice were sacrificed and the following tissues were collected: skull, kidney, lung, scapula, skin and heart. All tissues were fixed in 0.2% glutaraldehyde, 5 mM EDTA (pH 8.0), 20 mM MgCl2, 100 mM Na2HPO4 for 30 minutes before staining in 1 mg/ml X-gal, 12.5 mM potassium ferrocyanide, 12.5 mM potassium ferricyanide, 2 mM MgCl2, 0.01% deoxycholate, 0.02% NP-40, and 100 mM Na2HPO4 for 30 hours. Tissues were judged for relative intensity and photographed.
FIG. 42: Ptc-lacZ mice were divided into two treatment groups and were treated with the following compounds for three days, beginning on the first day after birth:
The vehicle for the agonist was 10% DMSO in PBS (pH 7.2). The agonist was injected from a 1.0 mM stock dissolved in the vehicle solution.
Eighteen hours following the last injections, the mice were sacrificed and the forelimbs were collected and processed as described above.
In a third experiment, Ptc-lacZ mice were divided into five treatment groups and were treated with the following compounds for four days, beginning on the first day after birth:
The vehicle for the agonist was 10% DMSO in PBS (pH 7.2). The agonist was injected from stocks of 0.3, 0.1 and 0.03 mM dissolved in the vehicle solution.

CNC1CCC(N(Cc2ccc(OC)c(-c3ccc(C#N)cc3)c2)C(=O)c2sc3ccccc3c2Cl)CC1 (centres unmarked) [D]
upregulation of hedgehog pathway in forelimbs (β-galactosidase staining) (0.1 mg/kg/injection 4X/day, four days): very weak upregulation
upregulation of hedgehog pathway in forelimbs (β-galactosidase staining) (0.3 mg/kg/injection 4X/day, four days): greater than that seen with injections of Hh protein at 10 mg/kg/injection
upregulation of hedgehog pathway in forelimbs (β-galactosidase staining) (0.9 mg/kg/injection 4X/day, four days): highest levels of upregulation; also recorded: greater than that seen with injections of Hh protein at 10 mg/kg/injection
upregulation of hedgehog pathway in forelimbs (β-galactosidase staining) (4 mg/kg/injection 4X/day, three days, absence of dipal-Shh): strong upregulation in the nerves, blood vessels, cartilage, and connective tissue; also recorded: greater than that seen with injections of dipal-Shh at 10 mg/kg/injection
dose dependence of hedgehog pathway upregulation in vivo (0.1-0.9 mg/kg/injection 4X/day): dose-responsive manner

Reference: patent US8129425B2, “Small organic molecule regulators of cell proliferation” (Curis, Inc., priority 2000, dated 2012)
